GI50 and TGI data for seven molecules are collected here from PubChem BioAssay (NCI).

Structures are written as SMILES.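 Exposure lasted 48 hours, with cells grown in 96-well plates and compounds tested at five concentrations. GI50 marks 50% less growth. At the TGI there is no net growth.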

Test in all cases: growth of human tumour cells (NCI), 48 h
Assay [1] has as its system HCT-116 colon.
Assay [2] has as its system SK-MEL-5 melanoma.
For assay [3], the system named is OVCAR-3 ovarian.
Assay [4] concerns HOP-62 NSCLC.
Assay [5] has as its system NCI-H522 lung.
Assay [6] has as its system SF-268 CNS.
In assay [7] the test system is BT-549 breast.
In assay [8] the test system is NCI-H460 lung.
The test system of assay [9] is MALME-3M melanoma.
In assay [10] the test system is LOX IMVI melanoma.

Consider `CC(C)[C@H](C(=O)O[C@@H]1/C=C/C(=O)O[C@@H](C)CCC/C=C/[C@@H]2C[C@H](O)C[C@H]21)N(C)C`, for which the GI50 in assay [1] is 14.5 µM; in [2] it was 1.75 µM; in assay [3], 8.54 µM; in [4], 17.2 µM; in [5], 26.5 µM; in assay [6] it was 5.25 µM. Also, the GI50 in assay [7] is 7.13 µM; in assay [8], 27.7 µM; in assay [9] it was 6.97 µM; in [10], 9.59 µM. Moreover, the TGI in assay [1] was 37.2 µM; in assay [2] it was 3.44 µM; in assay [3], 37.8 µM; in assay [4], greater than 100 µM; in [5], greater than 68.8 µM; in assay [6], 41.9 µM. In addition, the TGI in assay [7] worked out at 35.6 µM; in assay [8], 82.5 µM; in [9], 32.1 µM; in assay [10], 26.9 µM.

Regarding `Cc1[nH]n(-c2cccc(Cl)c2)c(=O)c1/C=C1\C=c2ccccc2=CC1=O`, the GI50 was greater than 100 µM in assay [1]; greater than 100 µM in [2]; 59.5 µM in assay [3]; 31.4 µM in assay [4]; greater than 100 µM in assay [5]; 97.1 µM in [6]. Moreover, the GI50 was 27.3 µM in [7], greater than 100 µM in [8], 29.2 µM in assay [9] and greater than 100 µM in assay [10]. Besides, the TGI in assay [1], in assay [2], in assay [3], in assay [4], in assay [5] and in [6] was greater than 100 µM each time. For the same molecule, the TGI in assay [7], in [8], in assay [9] and in assay [10] was greater than 100 µM in each case.

Regarding `CC[C@@]1(O)C(=O)NCc2c1cc1n(c2=O)Cc2cc3c(NC(C)=O)cccc3nc2-1`, the GI50 in assay [1], in assay [2], in assay [3], in [4], in assay [5] and in [6] was greater than 100 µM in each case. Besides, the GI50 in assay [7], in [8], in [9] and in assay [10] was greater than 100 µM each time. For the same molecule, the TGI in assay [1], in assay [2], in assay [3], in [4], in [5] and in assay [6] was greater than 100 µM in each case. Also, the TGI in [7], in [8], in [9] and in [10] was greater than 100 µM in each case.

As to `Fc1ccc(-c2nn3c(COc4ccc(Cl)cc4Cl)nnc3s2)cc1Oc1ccccc1`, the GI50 in [1] was 13.2 µM; in [2], 23 µM; in assay [3] it was 0.705 µM; in assay [4] it was 11.5 µM; in assay [5] it was 27 µM; in assay [6], 29.8 µM. For the same molecule, the GI50 in assay [7] is 19.3 µM; in assay [8] it was 25.4 µM; in assay [9], 17 µM; in [10], 14.6 µM. For the same molecule, the TGI in assay [1] was 25.9 µM; in assay [2] it was 71.2 µM; in assay [3] it was 13.3 µM; in assay [4], 23.7 µM; in assay [5], greater than 100 µM; in [6] it was 87.8 µM. Besides, the TGI in [7] was 43.8 µM; in [8] it was greater than 100 µM; in assay [9], 35.2 µM; in assay [10], 29 µM.

For the molecule `O=C1NC(=O)C(c2c[nH]c3ccccc23)=C1c1ccccc1`, the GI50 in assay [1], in [2], in assay [3], in [4], in assay [5] and in assay [6] was greater than 25 µM in each case. For the same molecule, the GI50 was greater than 25 µM in [7], greater than 25 µM in [8], greater than 25 µM in [9] and 23.3 µM in assay [10]. Moreover, the TGI in assay [1], in [2], in assay [3], in assay [4], in assay [5] and in assay [6] was greater than 25 µM each time. In addition, the TGI in [7], in assay [8], in [9] and in assay [10] was greater than 25 µM each time.

`CCOC(=O)c1cc(-c2ccccc2)[nH]c1N/N=C/c1c(Cl)cccc1Cl`: the GI50 in assay [1] was 0.729 µM; in assay [2], 0.706 µM; in assay [3], 0.248 µM; in assay [4], 2.37 µM; in [5], 0.701 µM; in assay [6] it was 1.14 µM. The GI50 in assay [7] was 1.24 µM; in assay [8], 0.909 µM; in [9], 3.9 µM; in assay [10] it was 3.05 µM. The TGI in assay [1] was greater than 36.7 µM; in [2] it was 14.1 µM; in assay [3] it was 1.04 µM; in assay [4] it was 41.4 µM; in assay [5], greater than 26.2 µM; in assay [6], greater than 100 µM. The TGI in assay [7] is 18.9 µM; in assay [8], greater than 61.7 µM; in assay [9] it was greater than 100 µM; in assay [10], greater than 100 µM.

For `COc1cc(NC(=O)c2ccccc2Nc2ccnc(C(F)(F)F)c2)cc(OC)c1OC`, the GI50 in [1] is 49.6 µM; in assay [2], 25.4 µM; in assay [3] it was 22.4 µM; in assay [4], 88.9 µM; in assay [5] it was 38.2 µM; in assay [6], greater than 100 µM. Further, the GI50 in [7] is 43.5 µM; in assay [8] it was 69.6 µM; in assay [9], 82.2 µM; in assay [10], 75.6 µM. Also, the TGI in assay [1], in [2], in assay [3], in assay [4], in assay [5] and in [6] was greater than 100 µM throughout. Further, the TGI in assay [7], in assay [8], in assay [9] and in assay [10] was greater than 100 µM in each case.
